Results on one molecule are retold here after PMC5218480 (PLoS ONE, 2017).

The subject of assay [1] is live leukemic cells of fresh bone marrow samples from AML patients. The conditions noted are these: read-out: mean IC50, proliferation of primary leukemic cells; 96 hours, n = 38 patient samples.
The next assay relates to NB-4 cells. Put plainly: Cell viability assay (CellTiter-Glo). The following applies: read-out: IC50 cell viability NB-4; 72 hours. (In ATP-based viability assays light output follows the ATP content of the culture.)
Assay [2] has as its system five human AML cell lines (MV-4-11, Kasumi-1, HL-60, MOLM-13, NB-4). The assay can be described thus: Cell viability assay, summary over five human AML cell lines. The conditions noted are these: 72 hours.
Protocol: (§3) MV-4-11, Kasumi-1, and HL-60 AML cell lines were all obtained from ATCC. MOLM-13 and NB-4 cell lines were obtained from DSMZ. […] The identity of each cell line was validated and documented by the suppliers. All experiments were performed with cells maintained at low passage numbers.
(§4) Compounds and/or solvent dimethyl sulfoxide (DMSO) were added at the same time using an HP D300 digital dispenser (Hewlett Packard) in triplicate or quadruplicate and incubated for 72 hours at 37°C. Viability was measured by adding 25 μL CellTiter-Glo (Promega), incubating for 10 minutes, and measuring luminescence on a SpectraMax (Molecular Devices). […] CI < 1 indicates synergism, CI = 1 indicates additivity, and CI > 1 indicates antagonism.
A further assay concerns Kasumi-1 cells. Put plainly: Cell viability assay (CellTiter-Glo). The following applies: read-out: IC50 cell viability Kasumi-1; 72 hours.
The next assay relates to HL-60 cells. Put plainly: Cell viability assay (CellTiter-Glo). The conditions noted are these: read-out: IC50 cell viability HL-60; 72 hours.
Assay [3] concerns MV-4-11 and HL-60 cells. Put plainly: Flow cytometry, apoptosis (Annexin V). The following applies: single agent, 96 hours. The format is cell-based, human. On the procedure:
(§1) All compounds and/or solvent DMSO were added concurrently at the indicated doses. Flow cytometry was performed to measure surface level of CD11b, cell cycle distribution, and induction of apoptosis. CD11b and apoptosis were analyzed on a FC500 flow cytometer ([…]) and cell cycle profiled on an Attune NxT (Life Technologies).
Annexin V-positive populations were quantified.

Assay [4] concerns MV-4-11, Kasumi-1 and HL-60 cell lines. The assay can be described thus: Histone acetylation by immunoblotting. The following applies: 24 hours, increasing doses. The format is cell-based, human. From the text:
The EpiQuick Total Histone Extraction kit (Epigentek) was used to isolate histones. Histone lysates were size separated on Bolt 10% Bis-Tris gradient gels (Life Technologies), transferred to polyvinylidene difluoride membranes, blocked in 5% BSA, and detected using standard western blotting techniques.

The next assay concerns MV-4-11 cells. The assay can be described thus: Cell viability assay (CellTiter-Glo), single agent and combination. The conditions noted are these: read-out: IC50 cell viability MV-4-11; 72 hours.
For assay [5], the system named is MV-4-11 and HL-60 cells. Put plainly: Flow cytometry, surface level of CD11b (differentiation). The format is cell-based, human. The following applies: single agent, 72 hours. On the procedure:
as §1
The frequency of CD11b positive cells out of total viable cells identified by forward and side scatter profile was quantified.
A general note: Flow cytometry measures light scatter and fluorescence of single cells or particles in a stream.

Assay [6] relates to MV-4-11 and HL-60 cells. The assay can be described thus: Flow cytometry, cell cycle (EdU, S phase). It counts as cell-based, human. The conditions noted are these: single agent, 72 hours. On the procedure: as §1
EdU labeled cells were then mixed with FxCycle Far Red Stain (Life Technologies) and 100 μg RNase A cocktail (Life technologies) for 30 minutes before flow cytometry analysis. Edu positive populations representing S phase cells were quantified.

For assay [7], the system named is MV-4-11 and HL-60 cells. The assay can be described thus: Quantitative real time PCR (qPCR) of CDKN1A, CDKN1C, GATA2, HES1. The format is cell-based, human. The conditions noted are these: MV-4-11 and HL-60, 48 hours. On the procedure:
RNA isolations were performed on a Qiacube (Qiagen) using the RNeasy Micro Kit (Qiagen) according to manufacturer’s protocol. RNA was converted to cDNA using the High Capacity RNA-to-cDNA Kit (Life Technologies) and qPCR performed using the Taqman Gene Expression Max Mix according to manufacturer’s protocol (Applied Bioscience). The following ThermoFisher taqman probes were used: GATA2 (Hs01060665_g1), GAPDH (Hs0275899_g1), ACTB (Hs00231119_m1), CDKN1A (Hs00355782_m1), CDKN1C (Hs00175938_m1), HES1 (Hs00172878_m1).

The next assay deals with MOLM-13 cells. Put plainly: Cell viability assay (CellTiter-Glo), single agent and combination. The following applies: read-out: IC50 cell viability MOLM-13; 72 hours.
The target in the next assay is T1, HDAC3 (Homo sapiens, UniProt O15379).
T1 construct: purchased BPS Biosciences
T1 sequence (O15379 whole entry): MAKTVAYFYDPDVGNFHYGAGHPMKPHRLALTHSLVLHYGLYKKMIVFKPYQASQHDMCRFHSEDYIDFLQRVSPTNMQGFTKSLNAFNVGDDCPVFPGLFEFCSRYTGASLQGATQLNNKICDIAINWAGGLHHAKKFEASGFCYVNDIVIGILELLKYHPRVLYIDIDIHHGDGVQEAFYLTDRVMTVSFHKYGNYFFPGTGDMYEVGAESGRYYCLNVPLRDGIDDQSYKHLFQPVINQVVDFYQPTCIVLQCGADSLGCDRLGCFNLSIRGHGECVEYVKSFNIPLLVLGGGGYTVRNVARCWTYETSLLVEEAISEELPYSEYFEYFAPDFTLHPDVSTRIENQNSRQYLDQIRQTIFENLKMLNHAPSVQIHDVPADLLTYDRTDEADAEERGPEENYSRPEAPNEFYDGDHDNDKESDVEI
T1 sequence (Q9Y618 395-489 partner limits assumed): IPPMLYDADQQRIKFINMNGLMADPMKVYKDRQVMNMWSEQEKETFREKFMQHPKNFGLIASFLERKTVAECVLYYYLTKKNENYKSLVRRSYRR
Put plainly: HDAC enzyme assay, in vitro biochemical. The conditions noted are these: pre-incubated 24 hours at 4°C; n = 3; read-out: IC50 against HDAC3. On the procedure:
(§2) In vitro biochemical assays were performed as described previously. Specifically, compounds were dissolved and diluted in assay buffer (50 mM HEPES, pH 7.4, 100 mM KCl, 0.001% Tween-20, 0.05% BSA, and 20 μM Tris (2-carboxyethyl) phosphine) to 6-fold the final concentration. […] The amount of substrate (acetyl-lysine tripeptide) used for each enzyme was equal to the Michaelis constant (Km), as determined by a titration curve. Substrate was diluted in assay buffer to 6-fold of the final concentration with 0.3 μM sequencing grade trypsin (Sigma-Aldrich). The substrate/trypsin mix was added to the enzyme/compound mix and the plate was shaken for 5 seconds and then placed into a SpectraMax M5 microtiter (Molecular Devices) plate reader. The enzymatic reaction was monitored over 30 minutes for release of […] after deacetylation of the lysine side chain in the peptide substrate, and the linear rate of the reaction was calculated.

The target in the next assay is T2, HDAC1 (Homo sapiens, UniProt Q13547).
T2 construct: purchased BPS Biosciences
T2 sequence (Q13547 whole entry): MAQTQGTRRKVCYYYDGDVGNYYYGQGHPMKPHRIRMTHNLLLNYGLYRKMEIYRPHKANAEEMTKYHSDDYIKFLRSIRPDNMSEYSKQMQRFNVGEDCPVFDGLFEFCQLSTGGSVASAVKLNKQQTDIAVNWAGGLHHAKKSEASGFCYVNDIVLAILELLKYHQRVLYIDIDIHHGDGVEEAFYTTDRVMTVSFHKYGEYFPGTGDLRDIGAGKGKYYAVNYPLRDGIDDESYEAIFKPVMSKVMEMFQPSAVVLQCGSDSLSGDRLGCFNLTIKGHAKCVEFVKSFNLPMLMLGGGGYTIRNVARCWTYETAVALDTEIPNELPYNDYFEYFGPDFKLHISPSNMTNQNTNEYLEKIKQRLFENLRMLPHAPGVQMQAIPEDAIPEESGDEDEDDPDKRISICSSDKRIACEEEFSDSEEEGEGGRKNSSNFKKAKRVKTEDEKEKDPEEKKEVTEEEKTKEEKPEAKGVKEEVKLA
The assay can be described thus: HDAC enzyme assay, in vitro biochemical. On the procedure: as §2

The target in another assay is T3, HDAC2 (Homo sapiens, UniProt Q92769).
T3 construct: purchased BPS Biosciences
T3 sequence (Q92769 whole entry): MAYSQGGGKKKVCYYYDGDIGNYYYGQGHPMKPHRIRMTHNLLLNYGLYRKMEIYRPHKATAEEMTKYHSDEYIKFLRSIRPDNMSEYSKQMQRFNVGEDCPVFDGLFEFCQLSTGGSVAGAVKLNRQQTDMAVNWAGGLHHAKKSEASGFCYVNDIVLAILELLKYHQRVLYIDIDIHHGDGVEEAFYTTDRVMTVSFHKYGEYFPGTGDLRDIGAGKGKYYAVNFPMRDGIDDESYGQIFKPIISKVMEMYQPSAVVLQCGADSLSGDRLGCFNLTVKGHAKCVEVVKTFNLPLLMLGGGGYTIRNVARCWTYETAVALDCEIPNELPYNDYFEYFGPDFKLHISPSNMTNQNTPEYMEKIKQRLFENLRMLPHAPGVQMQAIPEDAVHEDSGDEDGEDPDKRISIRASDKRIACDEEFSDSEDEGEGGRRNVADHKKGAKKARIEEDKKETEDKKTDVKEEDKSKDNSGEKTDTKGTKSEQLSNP
Put plainly: HDAC enzyme assay, in vitro biochemical. On the procedure:
as §2

SMILES strings stand for the structures. Like-named read-outs stand apart in the source and are kept apart here.

Protocol for Kasumi-1 cells: as §3, §4
Protocol for MOLM-13 cells: as §3, §4
Protocol for MV-4-11 cells: as §3, §4
Protocol for NB-4 cells: as §3
Compounds and/or solvent dimethyl sulfoxide (DMSO) were added at the same time using an HP D300 digital dispenser (Hewlett Packard) in triplicate or quadruplicate and incubated for 72 hours at 37°C. Viability was measured by adding 25 μL CellTiter-Glo (Promega), incubating for 10 minutes, and measuring luminescence on a SpectraMax (Molecular Devices).

As to `Nc1ccc(-c2cccs2)cc1NC(=O)c1ccc2nc(N3CCNCC3)ccc2c1` [ACY-957], the IC50 is 1100 nM in [1]; 1600 nM in the assay with NB-4 cells; 800 to 3300 nM in assay [2] (read-out: IC50 values cell viability, range, five human AML cell lines, both compounds); 1500 nM in assay [2] (read-out: average IC50 value, viability of AML cells, average of five AML cell lines); 1600 nM in the assay with Kasumi-1 cells; 2200 nM with HL-60 cells. For the same molecule, the IC50 in the assay on MV-4-11 cells was 800 nM; with MOLM-13 cells, 1600 nM; on HDAC3 it was 1160 nM; on HDAC1 (pre-incubated 24 hours at 4°C, n = 3, read-out: IC50 against HDAC1), 7.2 nM; at HDAC2 (pre-incubated 24 hours at 4°C, n = 3, read-out: IC50 against HDAC2), 26 nM. Further, in the assay with MV-4-11 and HL-60 cells [3], the “apoptosis, staining for annexin V” value is listed as “increased staining for annexin V”. For the same molecule, the “acetylation on histone H2B lysine 5 (H2BK5ac) and histone H3 lysine 56 (H3K56ac)” value in assay [4] is listed as “dose-dependent accumulation”. Besides, in the assay on MV-4-11 and HL-60 cells [5], the “differentiation, surface expression of CD11b” value is given as “dose-dependent induction of differentiation”. For the same molecule, in the assay on MV-4-11 and HL-60 cells [6], the “cells in S phase” value is “dose-dependent reduction of cells in S phase”. For the same molecule, the “expression of CDKN1A, CDKN1C, GATA2 and HES1 (qPCR)” value in the assay on MV-4-11 and HL-60 cells [7] is “up-regulated”. In addition, the “selectivity for HDAC1 over HDAC3” value on HDAC1 is given as “more than 150 fold”. Moreover, the “selectivity for HDAC2 over HDAC3” value at HDAC2 is reported as “approximately 50 fold”.
